Here are results for 29 compounds from patent US20070149525A1, “Methods of treating amyloidosis using aryl-cyclopropyl derivative aspartyl protease inhibitors” (priority 2005, published 2007).

One series can be described thus: In vitro permeability across MDCK cell monolayer. It is filed as in vitro ADME, Canine. Particulars: dog, MDCK, test compound 5 μM, 2 h at 37° C., apical to basolateral, read-out: Permeability Forward A > B. As to the method: Compounds were evaluated for permeability across a monolayer of Madin-Darby Canine Kidney (MDCK) cells in a transwell device following culturing for 4 days. […] A 0.5 mL of cell suspension (400,000 cells/mL) was placed on membrane and a 1.5 mL media in the bottom wells on day 1. On day 2 and day 3, cells were fed with new media. […] Media was removed from upper chambers and filled with mHBSS with or without CspA, and incubated 30 min at 37° C. with light shaking. Donor chambers were emptied, and filled with test compound at 5 μM in mHBSS. […] Plates were incubated for 2 h at 37° C. with shaking. After 2 h, both the donor and receiver wells were sampled. The bottom chambers were read in a fluorometer to assess LY leakage, and then the media from all wells were assayed by LC/MS/MS to determine compound levels.
For the compound `CC(=O)NC(Cc1cc(F)cc(F)c1)C(O)CNC1(c2cccc(C3CCOC3)c2)CC1` (centres unmarked) [Example 23.24, N-(1-(3,5-difluorophenyl)-3-hydroxy-4-(1-(3-(tetrahydrofuran-3-yl)phenyl)cyclopropylamino)butan-2-yl)acetamide], the Papp A→B at 2 h, 5 μM is 13.2 ×10⁻⁶ cm/s.
As to `CC(=O)NC(Cc1cc(F)cc(F)c1)C(O)CNC1(c2cccc(C3COCO3)c2)CC1` (centres unmarked) [Example 23.53, N-(4-(1-(3-(1,3-dioxolan-4-yl)phenyl)cyclopropylamino)-1-(3,5-difluorophenyl)-3-hydroxybutan-2-yl)acetamide], the Papp A→B at 2 h, 5 μM was 12.7 ×10⁻⁶ cm/s.
Consider `CC(=O)NC(Cc1cc(F)cc(F)c1)C(O)CNC1(n2cccn2)CC1Cc1ccccc1` (single isomer, unassigned) [23.30 Diastereomer A, N-(4-(2-benzyl-1-(1H-pyrazol-1-yl)cyclopropylamino)-1-(3,5-difluorophenyl)-3-hydroxybutan-2-yl)acetamide], for which the Papp A→B at 2 h, 5 μM is 8.48 ×10⁻⁶ cm/s.
As for `CC(=O)NC(Cc1cc(F)cc(F)c1)C(O)CNC1(c2cccc(-n3cccn3)c2)CC1C` (centres unmarked) [Example 23.23, N-(4-(1-(3-(1H-pyrazol-1-yl)phenyl)-2-methylcyclopropylamino)-1-(3,5-difluorophenyl)-3-hydroxybutan-2-yl)acetamide], the Papp A→B at 2 h, 5 μM came out at 11.1 ×10⁻⁶ cm/s.
For `CC(=O)NC(Cc1cc(F)cc(F)c1)C(O)CNC1(c2cccc(C(C)(C)C(F)F)c2)CC1` (centres unmarked) [Example 23.50, N-(4-(1-(3-(1,1-difluoro-2-methylpropan-2-yl)phenyl)cyclopropylamino)-1-(3,5-difluorophenyl)-3-hydroxybutan-2-yl)acetamide], the Papp A→B at 2 h, 5 μM was 12.8 ×10⁻⁶ cm/s.
On the same count and under the same terms, as for `CC(=O)NC(Cc1cc(F)cc(F)c1)C(O)CNC1(c2cccc(C3CCOCOC3)c2)CC1` (centres unmarked) [Example 23.34, N-(4-(1-(3-(1,3-dioxepan-5-yl)phenyl)cyclopropylamino)-1-(3,5-difluorophenyl)-3-hydroxybutan-2-yl)acetamide], the figure is 12.1 ×10⁻⁶ cm/s; as for `CC(=O)NC(Cc1cc(F)cc(F)c1)C(O)CNC1(n2cccn2)C2CCCC21` (centres unmarked) [Example 23.14, N-(4-(6-(1H-pyrazol-1-yl)bicyclo[3.1.0]hexan-6-ylamino)-1-(3,5-difluorophenyl)-3-hydroxybutan-2-yl)acetamide], 20.4 ×10⁻⁶ cm/s; as for `COCC(=O)NC(Cc1cc(F)cc(F)c1)C(O)CNC1(c2cccc(-n3cccn3)c2)CC1` (centres unmarked) [Example 23.40, N-(4-(1-(3-(1H-pyrazol-1-yl)phenyl)cyclopropylamino)-1-(3,5-difluorophenyl)-3-hydroxybutan-2-yl)-2-methoxyacetamide], 12.9 ×10⁻⁶ cm/s.
Regarding `CC(=O)NC(Cc1cc(F)cc(F)c1)C(O)CNC1(c2cncc(-n3cccn3)c2)CC1` (centres unmarked) [Example 23.29, N-(4-(1-(5-(1H-pyrazol-1-yl)pyridin-3-yl)cyclopropylamino)-1-(3,5-difluorophenyl)-3-hydroxybutan-2-yl)acetamide], the Papp A→B at 2 h, 5 μM stood at 8.62 ×10⁻⁶ cm/s.
As to `CC(=O)NC(Cc1cc(F)cc(F)c1)C(O)CNC1(c2cccc(C3CC=CCO3)c2)CC1` (centres unmarked) [Example 23.31, N-(1-(3,5-difluorophenyl)-4-(1-(3-(3,6-dihydro-2H-pyran-2-yl)phenyl)cyclopropylamino)-3-hydroxybutan-2-yl)acetamide], the Papp A→B at 2 h, 5 μM was 10.7 ×10⁻⁶ cm/s.
For the compound `CC(=O)NC(Cc1cc(F)cc(F)c1)C(O)CNC1(c2cc(-n3cccn3)cs2)CC1` (centres unmarked) [Example 23.15, N-(4-(1-(4-(1H-pyrazol-1-yl)thiophen-2-yl)cyclopropylamino)-1-(3,5-difluorophenyl)-3-hydroxybutan-2-yl)acetamide], the Papp A→B at 2 h, 5 μM stood at 12.1 ×10⁻⁶ cm/s.
On the same count and under the same terms, as for `CC(=O)NC(Cc1cc(F)cc(F)c1)C(O)CNC1(c2cccc(N3CCSCC3)c2)CC1` (centres unmarked) [Example 23.48, N-(1-(3,5-difluorophenyl)-3-hydroxy-4-(1-(3-thiomorpholinophenyl)cyclopropylamino)butan-2-yl)acetamide], the figure is 10.9 ×10⁻⁶ cm/s; as for `CC(=O)NC(Cc1cc(F)cc(F)c1)C(O)CNC1(c2cncc(CC(C)(C)C)c2)CC1` (centres unmarked) [Example 23.16, N-(1-(3,5-difluorophenyl)-3-hydroxy-4-(1-(5-neopentylpyridin-3-yl)cyclopropylamino)butan-2-yl)acetamide], 13.5 ×10⁻⁶ cm/s.
In the case of `CC(=O)NC(Cc1cc(F)cc(F)c1)C(O)CNC1(c2ncc(C(C)(C)C)o2)CC1` (centres unmarked) [Example 23.56, N-(4-(1-(5-tert-butyloxazol-2-yl)cyclopropylamino)-1-(3,5-difluorophenyl)-3-hydroxybutan-2-yl)acetamide], the Papp A→B at 2 h, 5 μM was 20.4 ×10⁻⁶ cm/s.
`CC(=O)NC(Cc1cc(F)cc(F)c1)C(O)CNC1(c2csc(C(C)(C)C)c2)CC1` (centres unmarked) [Example 23.21, N-(4-(1-(5-tert-butylthiophen-3-yl)cyclopropylamino)-1-(3,5-difluorophenyl)-3-hydroxybutan-2-yl)acetamide]: the Papp A→B at 2 h, 5 μM turned out to be 10 ×10⁻⁶ cm/s.
On the same count and under the same terms, then `COCC(C)(C)c1cccc(C2(NCC(O)C(Cc3cc(F)cc(F)c3)NC(C)=O)CC2)c1` (centres unmarked) [Example 23.52, N-(1-(3,5-difluorophenyl)-3-hydroxy-4-(1-(3-(1-methoxy-2-methylpropan-2-yl)phenyl)cyclopropylamino)butan-2-yl)acetamide], with 14.7 ×10⁻⁶ cm/s; and `COCCOCC(=O)NC(Cc1cc(F)cc(F)c1)C(O)CNC1(c2cccc(-n3cccn3)c2)CC1` (centres unmarked) [Example 23.44, N-(4-(1-(3-(1H-pyrazol-1-yl)phenyl)cyclopropylamino)-1-(3,5-difluorophenyl)-3-hydroxybutan-2-yl)-2-(2-methoxyethoxy)acetamide], with 13.3 ×10⁻⁶ cm/s.
`CC(=O)NC(Cc1cc(F)cc(F)c1)C(O)CNC1(c2cn(-c3ccsc3)nn2)CC1` (centres unmarked) [Example 23.20, N-(1-(3,5-difluorophenyl)-3-hydroxy-4-(1-(1-(thiophen-3-yl)-1H-1,2,3-triazol-4-yl)cyclopropylamino)butan-2-yl)acetamide]: the Papp A→B at 2 h, 5 μM came out at 12.1 ×10⁻⁶ cm/s.
For the compound `CC(=O)NC(Cc1cc(F)cc(F)c1)C(O)CNC1(c2cccc(N3CCOCC3)c2)CC1` (centres unmarked) [Example 23.32, N-(1-(3,5-difluorophenyl)-3-hydroxy-4-(1-(3-morpholinophenyl)cyclopropylamino)butan-2-yl)acetamide], the Papp A→B at 2 h, 5 μM came out at 12.1 ×10⁻⁶ cm/s.
On the same count and under the same terms, as for `COC(=O)NC(Cc1cc(F)cc(F)c1)C(O)CNC1(c2cccc(-n3cccn3)c2)CC1` (centres unmarked) [Example 23.45, methyl 4-(1-(3-(1H-pyrazol-1-yl)phenyl)cyclopropylamino)-1-(3,5-difluorophenyl)-3-hydroxybutan-2-ylcarbamate], the figure is 17 ×10⁻⁶ cm/s; as for `CC(=O)NC(Cc1cc(F)cc(F)c1)C(O)CNC1(c2cccc(C(F)C(C)(C)F)c2)CC1` (centres unmarked) [Example 23.51, N-(4-(1-(3-(1,2-difluoro-2-methylpropyl)phenyl)cyclopropylamino)-1-(3,5-difluorophenyl)-3-hydroxybutan-2-yl)acetamide], 12.7 ×10⁻⁶ cm/s; as for `C=C(c1cccc(C2(NCC(O)C(Cc3cc(F)cc(F)c3)NC(C)=O)CC2)c1)C(F)(F)F` (centres unmarked) [Example 23.26, N-(1-(3,5-difluorophenyl)-3-hydroxy-4-(1-(3-(3,3,3-trifluoroprop-1-en-2-yl)phenyl)cyclopropylamino)butan-2-yl)acetamide], 10.3 ×10⁻⁶ cm/s.
On to `O=C(Cc1ccccc1)NC(Cc1cc(F)cc(F)c1)C(O)CNC1(c2cccc(-n3cccn3)c2)CC1` (centres unmarked) [Example 23.38, N-(4-(1-(3-(1H-pyrazol-1-yl)phenyl)cyclopropylamino)-1-(3,5-difluorophenyl)-3-hydroxybutan-2-yl)-2-phenylacetamide], for which the Papp A→B at 2 h, 5 μM is 22.1 ×10⁻⁶ cm/s.
For the compound `CC(=O)NC(Cc1cc(F)cc(F)c1)C(O)CNC1(c2c(F)ccc(-n3cccn3)c2F)CC1` (centres unmarked) [Example 23.35, N-(4-(1-(2,6-difluoro-3-(1H-pyrazol-1-yl)phenyl)cyclopropylamino)-1-(3,5-difluorophenyl)-3-hydroxybutan-2-yl)acetamide], the Papp A→B at 2 h, 5 μM came to 19.4 ×10⁻⁶ cm/s.
As to `Cc1cc(CC(=O)NC(Cc2cc(F)cc(F)c2)C(O)CNC2(c3cccc(-n4cccn4)c3)CC2)no1` (centres unmarked) [Example 23.49, N-(4-(1-(3-(1H-pyrazol-1-yl)phenyl)cyclopropylamino)-1-(3,5-difluorophenyl)-3-hydroxybutan-2-yl)-2-(5-methylisoxazol-3-yl)acetamide], the Papp A→B at 2 h, 5 μM was 10.4 ×10⁻⁶ cm/s.
Consider `CC(=O)NC(Cc1cc(F)cc(F)c1)C(O)CNC1(c2cnn(C(C)(C)C)c2)CC1` (centres unmarked) [Example 23.37, N-(4-(1-(1-tert-butyl-1H-pyrazol-4-yl)cyclopropylamino)-1-(3,5-difluorophenyl)-3-hydroxybutan-2-yl)acetamide], for which the Papp A→B at 2 h, 5 μM came out at 7.11 ×10⁻⁶ cm/s.
For `CCOCC(=O)NC(Cc1cc(F)cc(F)c1)C(O)CNC1(c2cccc(-n3cccn3)c2)CC1` (centres unmarked) [Example 23.41, N-(4-(1-(3-(1H-pyrazol-1-yl)phenyl)cyclopropylamino)-1-(3,5-difluorophenyl)-3-hydroxybutan-2-yl)-2-ethoxyacetamide], the Papp A→B at 2 h, 5 μM was found to be 9.86 ×10⁻⁶ cm/s.

The series is the same for the next values; noted with them: dog, test compound 5 μM, 2 h at 37° C., apical to basolateral, read-out: Permeability Forward A > B.
With `CC(=O)NC(Cc1cc(F)cc(F)c1)C(O)CNC1(c2csc(CC(C)(C)C)n2)CC1` (centres unmarked) [Example 23.19, N-(4-(1-(2-neopentylthiazol-4-yl)cyclopropylanimo)1-(3,5-difluorophenyl)-3-hydroxybutan-2-yl)acetamide], the Papp A→B at 2 h, 5 μM is 26.7 ×10⁻⁶ cm/s.
In the case of `CC(C)(C)Cc1cc(C2(NCC(O)C(Cc3cc(F)cc(F)c3)NC(=O)CF)CC2)on1` (centres unmarked) [Example 23.10, N-(4-(1-(3-neopentylisoxazol-5-yl)cyclopropylamino)-1-(3,5-difluorophenyl)-3-hydroxybutan-2-yl)-2-fluoroacetamide], the Papp A→B at 2 h, 5 μM worked out at 8.26 ×10⁻⁶ cm/s.
